Results on five compounds are retold here after US10730857B2, “Benzocyanine compounds” (Pierce Biotechnology, Inc., priority 2011, dated 2020).

Data set [1] is described as follows: Absorbance/emission spectral properties and fluorescence intensity of the dyes. Type of data set: physicochemical. As to the method:
Emission/excitation profiles for inventive and commercial compounds was determined by reconstituting the compounds in DMF at 10 mg/ml and then diluting in PBS buffer pH 7.2 to 10 μg/ml.

A further data set relates to lamin A in U20S cells. The experiment in a line: Immunofluorescence, mouse anti-lamin A, U20S cells (FIG. 16). The format is cell-based. The conditions noted are these: FIG. 16. On the procedure: The inventive compounds and commercial dye were evaluated for immunofluorescence in a second cell based assay using the following protocol. Frozen U20S cell plates stored at −20° C. were placed overnight at 4° C. Storage buffer (PBS) was removed and the cells were permeabilized for 15 min (100 μl/well) with 0.1% Triton-X100 in 1×PBS buffer. Plates were blocked for 30 min in 2% BSA in 1×PBS-0.1% Trion-X100. Primary antibodies diluted in 2% BSA in 1×PBS-0.1% Trion-X100 were added to the plates (column 1-11; column 12 included only blocker) and incubated five hours at room temperature. Mouse anti-lamin A was added at 2 μg/ml and rabbit anti-lamin B1 was added at 4 μg/ml. After incubation, the antibody solution was removed from the plates and the plates were washed PBS-0.5% Tween-20 (2×100 μl/well). Next, GAM and GAR secondary antibodies labeled with DyLight 680-NHS, DyLight 680B-NHS, 679 Compound 1-NHS, and Cy5.5 Mono Ester were diluted to 4 μg/ml in PBS and incubated with the cells for one hour at room temperature. GAM and GAR conjugated to DyLight 680-NHS, DyLight 680B-NHS, 679 Compound 1-NHS, and Company B Compound at 10× molar excess were diluted to 4 μg/ml in PBS and then serially diluted 1:1 in the plate to the following concentrations: 2 μg/ml, 1 μg/ml, 0.5 μg/ml, 0.25 μg/ml, 0.125 μg/ml and/or 0.0625 μg/ml. The plates were washed 3× with 100 μl/well PBS, and Hoechst stain diluted to 0.1 μg/ml in PBS was added to each well (100 μl/well). The plates were scanned on ArrayScan Plate Reader for imaging and quantitation.

The nature of data set [2]: In vivo imaging with dye-labeled anti-CEA antibody. The conditions noted are these: dye conjugated to mouse anti-CEA antibody; i.v.; predicted results. Also on record: species or system nu/nu mice. As to the method:
The inventive compounds are used for in vivo imaging as described in J. Gastrointest Surg (2008) 12:1938-1950. Briefly, human pancreatic cell lines are maintained in media supplemented with penicillin/streptomycin at 37° C. with 5% CO2. Mouse anti-CEA antibody and Control Mouse IgG (in PBS with 0.20% sodium azide) are conjugated to V08-15173. The dye is reconstituted at 10 mg/ml in DMF and then added to the antibody at a 10 molar excess. The reaction is carried out for one hour at room temperature. The samples are then dialyzed against 3×2 L of PBS. The cell lines are plated in 96-well plates at 5×10^4 cells per well. After 48 hours culture in appropriate media, the cells are incubated with 1 μg of V08-15173 labeled anti-CEA antibody or V08-15173-labeled control mouse IgG for four hours at 37° C. The cells are then washed three times with PBS and then imaged with an inverted Nikon De-485 microscope and Spot camera RD.
Surgical procedures and intravital imaging are performed with the animals anesthesized by intramuscular injection of 0.02 ml of 50% ketamine, 38% xylazine and 12 acepromazine maleate. Human pancreatic and colorectal cancer cell lines are harvested by trypsinization and washed twice with serum free medium […]. Cells (1×10^6 in 100 μl of serum-free media) are injected subcutaneously within 30 minutes of harvesting over the right flank in female nu/nu mice between 4-6 weeks of age. Subcutaneous tumors are allowed to grow for 7-14 days until they reached diameter of 1-2 mm prior to the delivery of conjugated antibody. For ASPC-1 implants, the cells are harvested by trypsinization and washed 3× in serum-free media. […]. The cells are resuspended in serum-free media at 5×10^6/ml. A volume of 200 μl of the cell suspension is then injected directly into the peritoneal cavity within 30 minutes of harvesting.
For antibody delivery, one to two weeks after subcutaneous, orthotopic, or intraperitoneal tumor implantation, animals are given intravenous (i.v.) injection of either conjugated anti-CEA or conjugated control IgG antibody diluted in PBS to a final volume of 100 μl. All i.v. injections are done via the tail vein. For the dose-response experiment, the antibody dose is 75 μg. For the in vivo time course, the animals are anesthesized and imaged at 30 min, 1, 2, 6, 24 hours and 8 and 15 days after systemic antibody delivery.
The inventive compounds are used for in vivo imaging as described in J. Gastrointest Surg (2008) 12:1938-1950. Briefly, human pancreatic cell lines are maintained in media supplemented with penicillin/streptomycin at 37° C. with 5% CO2. Mouse anti-CEA antibody and Control Mouse IgG (in PBS with 0.20% sodium azide) are conjugated to 779 Compound 1. […]

The mark [3] stands for this setting: first property table of Example 6, NHS/mono ester forms.
Where [4] appears, read: second property table of Example 6, NHS ester forms.

Consider `COCC[N+]1=C(/C=C/C=C/C=C2/N(CCCCCC(=O)ON3C(=O)CCC3=O)c3ccc4c(S(=O)(=O)[O-])cc(S(=O)(=O)O)cc4c3C2(C)C)C(C)(CCCS(=O)(=O)O)c2c1ccc1c(S(=O)(=O)O)cc(S(=O)(=O)O)cc21` (stereo not drawn) [679 Compound 1-NHS], for which, in data set [1] (setting [3]), the Em is recorded as 698 nm and the Ex was 679 nm. In data set [1] (setting [4]), this compound yielded an Em of 698 nm and an Ex of 679 nm.

For the compound Cy5.5 [reference compound], in the data set on lamin A in U20S cells (GAM conjugated at 2X molar excess), the “Mean Total Intensity 2X” value is listed as 211945. Besides, the “Mean Total Intensity 3X” value in the data set with lamin A in U20S cells (GAM conjugated at 3X molar excess) is 342208. In addition, the “Mean Total Intensity 4X” value in the data set on lamin A in U20S cells (GAM conjugated at 4X molar excess) is on record as 451111.

For the compound `COCC[N+]1=C(/C=C/C=C/C=C2/N(CCCCCC(=O)O)c3ccc4c(S(=O)(=O)[O-])cc(S(=O)(=O)[O-])cc4c3C2(C)C)C(C)(CCCS(=O)(=O)[O-])c2c1ccc1c(S(=O)(=O)[O-])cc(S(=O)(=O)[O-])cc21.[Na+].[Na+].[Na+].[Na+]` (single isomer, unassigned; isomer 1) [679 Compound 1/1 (isomer 1), 2-{(1E,3E)-5-[3-(5-Carboxypentyl)-1,1-dimethyl-6,8-disulfo-1,3-dihydro-benzo[e]indol-(2E)-ylidene]-penta-1,3-dienyl}-3-(2-methoxy-ethyl)-1-methyl-6,8-disulfo-1-(3-sulfopropyl)-1H-benzo[e]indolium], the “UV-vis λmax” value in data set [1] (PBS) is on record as 679 nm.

With “2-{(1E,3E)-5-[3-(5-Carboxypentyl)-1,1-dimethyl-6,8-disulfo-1,3-dihydro-benzo[e]indol-(2E)-ylidene]-penta-1,3-dienyl}-3-(2-methoxy-ethyl)-1-methyl-6,8-disulfo-1-(3-sulfopropyl)-1H-benzo[e]indolium [679 Compound 1/1 (isomer 2)]”, in data set [1] (PBS), the “UV-vis λmax” value is given as 679 nm and the λem stood at 698 nm.

With `COCC[N+]1=C(/C=C/C=C/C=C/C=C2/N(CCCCCC(=O)O)c3ccc4c(S(=O)(=O)[O-])cc(S(=O)(=O)O)cc4c3C2(C)C)C(C)(CCCS(=O)(=O)O)c2c1ccc1c(S(=O)(=O)O)cc(S(=O)(=O)O)cc21` (stereo not drawn) [779 Compound 1, 6-((E)-2-((2E,4E,6E)-7-(3-(2-methoxyethyl)-1-methyl-6,8-disulfonato-1-(3-sulfonatopropyl)-1H-benzo[e]indol-3-ium-2-yl)hepta-2,4,6-trien-1-ylidene)-1,1-dimethyl-6,8-disulfonato-1H-benzo[e]indol-3(2H)-yl)hexanoate], in data set [2], the “Ex vivo analysis of the vital organs” value is “presence of dye predominantly in the liver with some signal detected in the spleen intestines and lungs”; the “post-experiment surgical exposure: accumulation of dye” value was “accumulation of dye in the liver, bladder, and a region of inflammation in the subcutaneous tissue”.
